{"source": "patent US20160193325A1", "about": "(priority 2002, published 2016)", "test_system": "HCVpp", "conditions": "25 μM AZT before and during infection; Huh-7", "description": "HCVpp were treated with 25 μM AZT (3′-azido-3′-deoxythymidine; Sigma-Aldrich, France) before and during infection of target cells (lane j)."}
{"smiles": "Cc1cn([C@H]2C[C@H](N=[N+]=[N-])[C@@H](CO)O2)c(=O)[nH]c1=O", "note": "[AZT, 3′-azido-3′-deoxythymidine]", "values": [{"measurement": "effect on transduction", "value": "inhibited transduction"}]}
